Measurements as given in US11497212B2, “Substituted thiophenyl uracils, salts thereof and the use thereof as herbicidal agents” (Syngenta Crop Protection AG, priority 2017, dated 2022).

Experiments:
Format in all cases: in vivo
Zea mays = experiment: Crop compatibility post-emergence (greenhouse pot trial)
Description: (§1) Seeds of mono- and dicotyledonous weed plants and crop plants are laid out in sandy loam soil in plastic or wood-fiber pots, covered with earth and grown under controlled growth conditions in a greenhouse. 2 to 3 weeks after sowing, the trial plants are treated at the one-leaf stage. The compounds of the invention formulated in the form of wettable powders (WP) or emulsion concentrates (EC) were then sprayed onto the green parts of the plant as an aqueous suspension or emulsion with addition of 0.5% additive at a water application rate equivalent to 600 L/ha. After the trial plants had stood for about 3 weeks in the greenhouse, under optimal growth conditions, the effect of the preparations was scored visually by comparison with untreated controls. For example, 100% efficacy=plants have died, 0% efficacy=like control plants.
(§2) Crop plant compatibilities were also scored correspondingly.
(§3) The effects observed are reported here on selected crop plants by comparison with the untreated controls (values in %).

Oryza sativa = experiment: as above; settings: application rate 20 g/ha
Description: as §1, §2, §3

Viola tricolor = experiment: Herbicidal action post-emergence (greenhouse pot trial); settings: application rate 20 g/ha
Description: as §1, with “plants. Tables A1 to A15 below show the efficacies of selected compounds of the general formula (I) according to tables I.1 to I.60 on various harmful plants and an application rate corresponding to 80 g/ha or lower that were obtained by the aforementioned trial method.” for “plants.”

Amaranthus retroflexus = experiment: as above; settings: application rate 20 g/ha, scored visually after about 3 weeks vs untreated controls
Description: as §1, with “plants. Tables A1 to A15 below show the efficacies of selected compounds of the general formula (I) according to tables I.1 to I.60 on various harmful plants and an application rate corresponding to 80 g/ha or lower that were obtained by the aforementioned trial method.” for “plants.”

Veronica persica = experiment: as above; settings: application rate 20 g/ha
Description: as §1, with “plants. Tables A1 to A15 below show the efficacies of selected compounds of the general formula (I) according to tables I.1 to I.60 on various harmful plants and an application rate corresponding to 80 g/ha or lower that were obtained by the aforementioned trial method.” for “plants.”

Stellaria media = experiment: as above; settings: application rate 20 g/ha, scored visually after about 3 weeks vs untreated controls
Description: as §1, with “plants. Tables A1 to A15 below show the efficacies of selected compounds of the general formula (I) according to tables I.1 to I.60 on various harmful plants and an application rate corresponding to 80 g/ha or lower that were obtained by the aforementioned trial method.” for “plants.”

Matricaria inodora = experiment: as above; settings: application rate 20 g/ha, scored visually after about 3 weeks vs untreated controls
Description: as §1, with “plants. Tables A1 to A15 below show the efficacies of selected compounds of the general formula (I) according to tables I.1 to I.60 on various harmful plants and an application rate corresponding to 80 g/ha or lower that were obtained by the aforementioned trial method.” for “plants.”

Abutilon theophrasti = experiment: as above; settings: application rate 20 g/ha, scored visually after about 3 weeks vs untreated controls
Description: as §1, with “plants. Tables A1 to A15 below show the efficacies of selected compounds of the general formula (I) according to tables I.1 to I.60 on various harmful plants and an application rate corresponding to 80 g/ha or lower that were obtained by the aforementioned trial method.” for “plants.”

Triticum aestivum = experiment: Crop compatibility post-emergence (greenhouse pot trial)
Description: as §1, §2, §3

Polygonum convolvulus = experiment: Herbicidal action post-emergence (greenhouse pot trial); settings: application rate 20 g/ha, scored visually after about 3 weeks vs untreated controls
Description: as §1, with “plants. Tables A1 to A15 below show the efficacies of selected compounds of the general formula (I) according to tables I.1 to I.60 on various harmful plants and an application rate corresponding to 80 g/ha or lower that were obtained by the aforementioned trial method.” for “plants.”

Setaria viridis = experiment: as above; settings: application rate 20 g/ha, scored visually after about 3 weeks vs untreated controls
Description: as §1, with “plants. Tables A1 to A15 below show the efficacies of selected compounds of the general formula (I) according to tables I.1 to I.60 on various harmful plants and an application rate corresponding to 80 g/ha or lower that were obtained by the aforementioned trial method.” for “plants.”

Pharbitis purpurea = experiment: as above; settings: application rate 20 g/ha
Description: as §1, with “plants. Tables A1 to A15 below show the efficacies of selected compounds of the general formula (I) according to tables I.1 to I.60 on various harmful plants and an application rate corresponding to 80 g/ha or lower that were obtained by the aforementioned trial method.” for “plants.”

Digitaria sanguinalis = experiment: as above; settings: application rate 20 g/ha
Description: as §1, with “plants. Tables A1 to A15 below show the efficacies of selected compounds of the general formula (I) according to tables I.1 to I.60 on various harmful plants and an application rate corresponding to 80 g/ha or lower that were obtained by the aforementioned trial method.” for “plants.”

Echinochloa crus-galli = experiment: as above; settings: application rate 20 g/ha, scored visually after about 3 weeks vs untreated controls
Description: as §1, with “plants. Tables A1 to A15 below show the efficacies of selected compounds of the general formula (I) according to tables I.1 to I.60 on various harmful plants and an application rate corresponding to 80 g/ha or lower that were obtained by the aforementioned trial method.” for “plants.”

SMILES | Zea mays (Efficacy in %) (Zea mays; application rate 80 g/ha) | Oryza sativa (Efficacy in %) (Oryza sativa) | Viola tricolor (Efficacy in %) (Viola tricolor) | Amaranthus retroflexus (Efficacy in %) (Amaranthus retroflexus) | Veronica persica (Efficacy in %) (Veronica persica) | Stellaria media (Efficacy in %) (Stellaria media) | Matricaria inodora (Efficacy in %) (Matricaria inodora) | Abutilon theophrasti (Efficacy in %) (Abutilon theophrasti) | Zea mays (Efficacy in %) (Zea mays; application rate 5 g/ha) | Triticum aestivum (Efficacy in %) (Triticum aestivum; application rate 20 g/ha) | Polygonum convolvulus (Efficacy in %) (Polygonum convolvulus) | Setaria viridis (Efficacy in %) (Setaria viridis) | Triticum aestivum (Efficacy in %) (Triticum aestivum; application rate 5 g/ha) | Pharbitis purpurea (Efficacy in %) (Pharbitis purpurea) | Digitaria sanguinalis (Efficacy in %) (Digitaria sanguinalis) | Zea mays (Efficacy in %) (Zea mays; application rate 20 g/ha) | Echinochloa crus-galli (Efficacy in %) (Echinochloa crus-galli)
Cn1c(C(F)(F)F)cc(=O)n(-c2cc(SCC(C)(C)C(=O)NCC3CCCO3)c(Cl)cc2F)c1=O (centres unmarked) [I.48-221] | 20% | 10% | 100% | 90% | 100% | 100% | 80% | 100% | – | – | – | – | – | – | – | – | –
Cn1c(C(F)(F)F)cc(=O)n(-c2cc(SCC(C)(C)C(=O)OCC3CCCOC3)c(Cl)cc2F)c1=O (centres unmarked) [I.48-92, Tetrahydro-2H-pyran-3-ylmethyl 3-({2-chloro-4-fluoro-5-[3-methyl-2,6-dioxo-4-(trifluoromethyl)-3,6-dihydropyrimidin-1(2H)-yl]phenyl}sulfanyl)-2,2-dimethylpropanoate] | – | 10% | 100% | 100% | 100% | 100% | – | 100% | 10% | 0% | 80% | 100% | – | – | – | – | –
COCCNC(=O)C(C)Sc1cc(-n2c(=O)cc(C(F)(F)F)n(C)c2=O)c(F)cc1Cl (centres unmarked) [I.1-151] | – | 20% | 100% | 100% | 100% | 100% | 100% | 100% | 20% | – | 100% | 100% | 20% | 100% | 80% | – | –
CC(Sc1cc(-n2c(=O)cc(C(F)(F)F)n(C)c2=O)c(F)cc1Cl)C(=O)NCC1COC(C)(C)O1 (centres unmarked) [I.1-334] | – | 10% | 100% | 100% | 100% | 90% | 100% | 100% | – | – | 90% | 90% | – | – | – | 20% | –
CC(Sc1cc(-n2c(=O)cc(C(F)(F)F)n(C)c2=O)c(F)cc1Cl)C(=O)OCCCOCc1ccccc1 (centres unmarked) [I.1-30] | – | 0% | 100% | 100% | 100% | 90% | 100% | 100% | – | 20% | 100% | 100% | – | 100% | 100% | – | 100%
Cc1c(C(F)(F)F)n(C)c(=O)n(-c2cc(SCC(C)(C)C(=O)NCC3CCCO3)c(Cl)cc2F)c1=O (centres unmarked) [I.54-221] | – | 20% | – | 100% | 80% | 80% | 100% | 100% | – | 0% | 100% | – | – | 100% | – | 00% | –
CCC(Sc1cc(-n2c(=O)c(C)c(C(F)(F)F)n(C)c2=O)c(F)cc1Cl)C(=O)NCC1CCCO1 (centres unmarked) [I.12-221] | – | 20% | 100% | 100% | 100% | 80% | 100% | 100% | 0% | 20% | 100% | – | – | – | – | – | –
Cn1c(C(F)(F)F)cc(=O)n(-c2cc(SCC(C)(C)C(=O)OC3CCOCC3)c(Cl)cc2F)c1=O [I.48-127] | – | 0% | 100% | 100% | 100% | 100% | 90% | 100% | 20% | 10% | 90% | – | – | 90% | – | – | –
CCC(Sc1cc(-n2c(=O)c(C)c(C(F)(F)F)n(C)c2=O)c(F)cc1Cl)C(=O)OCC1CCCO1 (centres unmarked) [I.12-71] | – | 0% | 100% | 100% | 100% | 100% | 80% | 100% | 0% | – | 80% | – | 0% | 100% | – | – | 100%
Cc1c(C(F)(F)F)n(C)c(=O)n(-c2cc(SCC(C)(C)C(=O)OCC3CCSC3)c(Cl)cc2F)c1=O (centres unmarked) [I.54-82] | – | 0% | 90% | 100% | 80% | – | – | 100% | 20% | – | – | – | 0% | – | – | – | –
